From patent US12686727B2, “Antibodies for binding plasmin” (MONASH UNIVERSITY, priority 2019, dated 2026)

Test system: whole blood clots
Assay: Whole blood clot lysis induced by tPA
Format: cell-based, human
Conditions: for inhibition of clot lysis at high concentrations: up to 1,000 nM
Description: Whole blood clots were formed from human blood collected from healthy donors. Halo-shaped clots were generated by mixing whole blood with 15% of a mixture containing recombinant tissue factor supplemented with synthetic phospholipids Dade Innovin, Siemens Germany and 67 mM CaCl2 in HBS at 1:4 ratio. The plate was sealed and incubated at 37° C. for 60 min before use.
Clot lysis was induced by the addition of tPA to 7 nM and antibodies or Plm inhibitors at the following concentrations: 0-312.5 nM B10; 0-1000 nM α2AP; 0-1000 nM aprotinin; 0-7.5 mM TXA. Clot lysis leads to an […] of turbidity and was monitored at OD610 nm using a plate reader.
The time required to achieve 50% clot lysis was used for IC50 calculation. […] B10 was more than 180-fold more efficacious than TXA (not shown).

Molecule	concentration of total inhibition of clot lysis (7 nM tPA, data not shown)	effect on clot lysis (concentration up to 100 μM)	inhibition of clot lysis at high concentrations
NC[C@H]1CC[C@H](C(=O)O)CC1 [TXA, tranexamic acid, reference compound]	≥ 300 µM	delayed clot lysis	
Aprotinin [reference compound]			only partially inhibit clot lysis
alpha-2-antiplasmin (protein) NQEQVSPLTLLKLGNQEPGGQTALKSPPGVCSRDPTPEQTHRLARAMMAFTADLFSLVAQTSTCPNLILSPLSVALALSHLALGAQNHTLQRLQQVLHAGSGPCLPHLLSRLCQDLGPGAFRLAARMYLQKGFPIKEDFLEQSEQLFGAKPVSLTGKQEDDLANINQWVKEATEGKIQEFLSGLPEDTVLLLLNAIHFQGFWRNKFDPSLTQRDSFHLDEQFTVPVEMMQARTYPLRWFLLEQPEIQVAHFPFKNNMSFVVLVPTHFEWNVSQVLANLSWDTLHPPLVWERPTKVRLPKLYLKHQMDLVATLSQLGLQELFQAPDLRGISEQSLVVSGVQHQSTLELSEVGVEAAAATSIAMSRMSLSSFSVNRPFLFFIFEDTTGLPLFVGSVRNPNPSAPRELKEQQDSPGNKDFLQSLKGFPRGDKLFGPDLKLVPPMEEDYPQFGSPK			only partially inhibit clot lysis
